How the values were obtained:
[1] = Particle size (D90) of ciprofloxacin; type: physicochemical
Text: The final drug product has particle size of D90 of about 25 μm. […] In some embodiments, it is the use of a lower sterilization temperature and homogenization of the suspension during the sterilization process that contributes to the particle size distribution of ciprofloxacin in the suspension, and in the final product.

[2] = Loss on drying (form anhydrous/hydrate of ciprofloxacin); type: physicochemical; details: solid dried 40° C. oven 24 hours, then 125° C. oven one hour; weight loss due to 125° C.
Protocol: To assess the form of ciprofloxacin samples described in the present disclosure, a comparison experiment is conducted to evaluate the sample's loss of weight upon heating. […] The conditions and results of the experiment are summarized below:
Experimental Setup—Loss on Drying: • If suspension: Pipette cipro suspension onto filter on vacuum filter flask • Transfer filter/dry powder to 40° C. oven, hold 24 hours • Transfer solid to pre-weighed aluminum pan and weigh solid • Transfer pan to 125° C. oven, hold one hour • Weigh again and determine weight loss due to 125° C.

Row | particle size D90 ([1]; listed as Ciprofloxacin free base anhydrous API powder) | Weight Loss on Drying [2] [%] | particle size D90 ([1]; listed as hydrate form) | Structure (SMILES)
1 | under 15 μm | 0.1 |  | O=C(O)c1cn(C2CC2)c2cc(N3CCNCC3)c(F)cc2c1=O [Sample 1, Ciprofloxacin]
2 |  | 11.1 | around 60 μm | O=C(O)c1cn(C2CC2)c2cc(N3CCNCC3)c(F)cc2c1=O [Sample 2, Ciprofloxacin]

— US9757484B2 (Otonomy, Inc., priority 2014, dated 2017)
